Assays:
[1] = tested on: soybean; assay: preemergence herbicidal activity on soybean; type: in vivo, Glycine max var. Winchester; conditions: Glycine max, pre-emergence, 0.3 Kg/Ha, after 12-17 days, read-out: PREEMERGENCE HERBICIDAL ACTIVITY (% CONTROL) SOY
Procedure: (§1) The (oxaalkyl)phenyl-substituted heterocycles of this invention were tested for pre- and postemergence herbicidal activity using a variety of crops and weeds. The test plants included soybean (Glycine max var. Winchester),field corn (Zea mays var. Pioneer 3732), wheat (Triticum aestivum var. Lew), morningglory (Ipomea lacunosa or Ipomea hederacea), […] (Abutilon theophrasti), green foxtail (Setaria viridis), Johnsongrass (Sorghum halepense), blackgrass (Aloepecurus myosuroides), common chickweed (Stellaria media), and common cocklebur (Xanthium strumarium L.).
(§2) For preemergence testing, two disposable fiber flats (8 cm×15 cm×25 cm) for each rate of application of each candidate herbicide were filled to an approximate depth of 6.5 cm with steam-sterilized sandy loam soil. The soil was leveled and impressed with a template to provide five evenly spaced furrows 13 cm long and 0.5 cm deep in each flat. Seeds of soybean, wheat, corn, green foxtail, and johnsongrass were planted in the furrows of the first flat, and seeds of velvetleaf, morningglory, common chickweed, cocklebur, and blackgrass were planted in the furrows of the second flat. The five-row template was employed to firmly press the seeds into place. A topping soil of equal portions of sand and sandy loam soil was placed uniformly on top of each flat to a depth of approximately 0.5 cm. Flats for postemergence testing were prepared in the same manner except that they were planted 9-14 days prior to the preemergence flats and were placed in a greenhouse and watered, thus allowing the seeds to germinate and the foliage to develop.
(§3) In both pre- and postemergence tests, a stock solution of the candidate herbicide was prepared by dissolving 0.27 g of the compound in 20 mL of water/acetone (50/50) containing 0.5% v/v sorbitan monolaurate. For an application rate of 3000 g/ha of herbicide a 10 mL portion of the stock solution was diluted with water/acetone (50/50) to 45 mL.
(§4) The preemergence flats were initially subjected to a light water spray. The four flats were placed two by two along a conveyor belt (i.e., the two preemergence followed by the two postemergence flats). The conveyor belt fed under a spray nozzle mounted about ten inches above the postemergent foliage. The preemergent flats were elevated on the belt so that the soil surface was at the same level below the spray nozzle as the foliage canopy of the postemergent plants. The spray of herbicidal solution was commenced and once stabilized, the flats were passed under the spray at a speed to receive a coverage equivalent of 1000 L/ha. At this coverage the application rates are those shown in the above table for the individual herbicidal solutions. The preemergence flats were watered immediately thereafter, placed in the greenhouse and watered regularly at the soil surface. The postemergence flats were immediately placed in the green-house and not watered until 24 hours after treatment with the test solution. Thereafter they were regularly watered at ground level. After 12-17 days the plants were examined and the phytotoxicity data were recorded.
(§5) Phytotoxicity data were taken as percent control. Percent control was by a method similar to the 0 to 1 00 rating system disclosed in "Research Methods in Weed Science," 2nd ed., B. Truelove, Ed.; Southern Weed Science Society; Auburn University, Auburn, Ala., 1977.

[2] = tested on: wheat; assay: preemergence herbicidal activity on wheat; type: in vivo, Triticum aestivum var. Lew; conditions: Triticum aestivum, pre-emergence, 0.3 Kg/Ha, after 12-17 days, read-out: PREEMERGENCE HERBICIDAL ACTIVITY (% CONTROL) WHT
Procedure: as §1, §2, §3, §4, §5

[3] = tested on: corn; assay: preemergence herbicidal activity on corn; type: in vivo, Zea mays var. Pioneer 3732; conditions: Zea mays, pre-emergence, 0.3 Kg/Ha, after 12-17 days, read-out: PREEMERGENCE HERBICIDAL ACTIVITY (% CONTROL) CRN
Procedure: as §1, §2, §3, §4, §5

[4] = tested on: velvetleaf; assay: preemergence herbicidal activity on velvetleaf; type: in vivo; conditions: Abutilon theophrasti, pre-emergence, 0.3 Kg/Ha, after 12-17 days, read-out: PREEMERGENCE HERBICIDAL ACTIVITY (% CONTROL) ABUTH
Procedure: as §1, §2, §3, §4, §5

[5] = tested on: morningglory; assay: preemergence herbicidal activity on morningglory; type: in vivo, Ipomea lacunosa or Ipomea hederacea; conditions: Ipomoea, pre-emergence, 0.3 Kg/Ha, after 12-17 days, read-out: PREEMERGENCE HERBICIDAL ACTIVITY (% CONTROL) IPOSS
Procedure: as §1, §2, §3, §4, §5

[6] = tested on: chickweed; assay: preemergence herbicidal activity on chickweed; type: in vivo; conditions: Stellaria media, pre-emergence, 0.3 Kg/Ha, after 12-17 days, read-out: PREEMERGENCE HERBICIDAL ACTIVITY (% CONTROL) STEME
Procedure: as §1, §2, §3, §4, §5

[7] = tested on: cocklebur; assay: preemergence herbicidal activity on cocklebur; type: in vivo, Xanthium strumarium L.; conditions: Xanthium strumarium, pre-emergence, 0.3 Kg/Ha, after 12-17 days, read-out: PREEMERGENCE HERBICIDAL ACTIVITY (% CONTROL) XANPE
Procedure: as §1, §2, §3, §4, §5

[8] = tested on: green foxtail; assay: preemergence herbicidal activity on green foxtail; type: in vivo; conditions: Setaria viridis, pre-emergence, 0.3 Kg/Ha, after 12-17 days, read-out: PREEMERGENCE HERBICIDAL ACTIVITY (% CONTROL) SETVI
Procedure: as §1, §2, §3, §4, §5

[9] = tested on: johnsongrass; assay: preemergence herbicidal activity on johnsongrass; type: in vivo; conditions: Sorghum halepense, pre-emergence, 0.3 Kg/Ha, after 12-17 days, read-out: PREEMERGENCE HERBICIDAL ACTIVITY (% CONTROL) SORHA
Procedure: as §1, §2, §3, §4, §5

[10] = tested on: soybean; assay: postemergence herbicidal activity on soybean; type: in vivo, Glycine max var. Winchester; conditions: Glycine max, post-emergence, 0.3 Kg/Ha, after 12-17 days, read-out: POSTEMERGENCE HERBICIDAL ACTIVITY (% CONTROL) SOY
Procedure: as §1, §2, §3, §4, §5

[11] = tested on: wheat; assay: postemergence herbicidal activity on wheat; type: in vivo, Triticum aestivum var. Lew; conditions: Triticum aestivum, post-emergence, 0.3 Kg/Ha, after 12-17 days, read-out: POSTEMERGENCE HERBICIDAL ACTIVITY (% CONTROL) WHT
Procedure: as §1, §2, §3, §4, §5

[12] = tested on: corn; assay: postemergence herbicidal activity on corn; type: in vivo, Zea mays var. Pioneer 3732; conditions: Zea mays, post-emergence, 0.3 Kg/Ha, after 12-17 days, read-out: POSTEMERGENCE HERBICIDAL ACTIVITY (% CONTROL) CRN
Procedure: as §1, §2, §3, §4, §5

[13] = tested on: velvetleaf; assay: postemergence herbicidal activity on velvetleaf; type: in vivo; conditions: Abutilon theophrasti, post-emergence, 0.3 Kg/Ha, after 12-17 days, read-out: POSTEMERGENCE HERBICIDAL ACTIVITY (% CONTROL) ABUTH
Procedure: as §1, §2, §3, §4, §5

[14] = tested on: morningglory; assay: postemergence herbicidal activity on morningglory; type: in vivo, Ipomea lacunosa or Ipomea hederacea; conditions: Ipomoea, post-emergence, 0.3 Kg/Ha, after 12-17 days, read-out: POSTEMERGENCE HERBICIDAL ACTIVITY (% CONTROL) IPOSS
Procedure: as §1, §2, §3, §4, §5

[15] = tested on: chickweed; assay: postemergence herbicidal activity on chickweed; type: in vivo; conditions: Stellaria media, post-emergence, 0.3 Kg/Ha, after 12-17 days, read-out: POSTEMERGENCE HERBICIDAL ACTIVITY (% CONTROL) STEME
Procedure: as §1, §2, §3, §4, §5

[16] = tested on: cocklebur; assay: postemergence herbicidal activity on cocklebur; type: in vivo, Xanthium strumarium L.; conditions: Xanthium strumarium, post-emergence, 0.3 Kg/Ha, after 12-17 days, read-out: POSTEMERGENCE HERBICIDAL ACTIVITY (% CONTROL) XANPE
Procedure: as §1, §2, §3, §4, §5

[17] = tested on: blackgrass; assay: postemergence herbicidal activity on blackgrass; type: in vivo, Aloepecurus myosuroides; conditions: Alopecurus myosuroides, post-emergence, 0.3 Kg/Ha, after 12-17 days, read-out: POSTEMERGENCE HERBICIDAL ACTIVITY (% CONTROL) ALOMY
Procedure: as §1, §2, §3, §4, §5

[18] = tested on: green foxtail; assay: postemergence herbicidal activity on green foxtail; type: in vivo; conditions: Setaria viridis, post-emergence, 0.3 Kg/Ha, after 12-17 days, read-out: POSTEMERGENCE HERBICIDAL ACTIVITY (% CONTROL) SETVI
Procedure: as §1, §2, §3, §4, §5

[19] = tested on: johnsongrass; assay: postemergence herbicidal activity on johnsongrass; type: in vivo; conditions: Sorghum halepense, post-emergence, 0.3 Kg/Ha, after 12-17 days, read-out: POSTEMERGENCE HERBICIDAL ACTIVITY (% CONTROL) SORHA
Procedure: as §1, §2, §3, §4, §5

[20] = tested on: blackgrass; assay: preemergence herbicidal activity on blackgrass; type: in vivo, Aloepecurus myosuroides; conditions: Alopecurus myosuroides, pre-emergence, 0.3 Kg/Ha, after 12-17 days, read-out: PREEMERGENCE HERBICIDAL ACTIVITY (% CONTROL) ALOMY
Procedure: as §1, §2, §3, §4, §5

Compound | activity at 300 g/ha [1] [%] | activity at 300 g/ha [2] [%] | activity at 300 g/ha [3] [%] | activity at 300 g/ha [4] [%] | activity at 300 g/ha [5] [%] | activity at 300 g/ha [6] [%] | activity at 300 g/ha [7] [%] | activity at 300 g/ha [8] [%] | activity at 300 g/ha [9] [%] | activity at 300 g/ha [10] [%] | activity at 300 g/ha [11] [%] | activity at 300 g/ha [12] [%] | activity at 300 g/ha [13] [%] | activity at 300 g/ha [14] [%] | activity at 300 g/ha [15] [%] | activity at 300 g/ha [16] [%] | activity at 300 g/ha [17] [%] | activity at 300 g/ha [18] [%] | activity at 300 g/ha [19] [%] | activity at 300 g/ha [20] [%]
CC(=O)OC(C)(C)C(Cl)Cc1cc(-n2nc(C)n(C(F)F)c2=O)c(F)cc1Cl (stereo not drawn) [Compound 17] | 70 | 50 | 85 | 100 | 100 | 95 | 80 | 80 | 100 | 80 | 50 | 90 | 100 | 100 | 100 | 60 | 80 | 100 | 100 | 
CC(=O)OC(C)(C)C(Cl)Cc1cc(-c2nn(C)c(OC(F)F)c2Cl)c(F)cc1Cl (stereo not drawn) [Compound 18] | 70 | 20 | 20 | 100 | 100 | 100 | 60 | 100 | 80 | 80 | 40 | 75 | 100 | 100 | 100 | 90 | 80 | 100 | 80 | 
Cc1nn(-c2cc(CC(Cl)CO)c(Cl)cc2F)c(=O)n1C(F)F (stereo not drawn) [Compound 24] | 30 | 50 | 70 | 100 | 100 |  | 95 | 100 | 65 | 80 | 30 | 80 | 100 | 100 | 10 | 100 | 30 | 80 | 80 | 10
Cn1nc(-c2cc(CC(Cl)C(C)(C)O)c(Cl)cc2F)c(Cl)c1OC(F)F (stereo not drawn) [Compound 3] | 60 | 30 | 40 | 100 | 100 | 100 | 100 | 100 | 75 | 95 | 40 | 70 | 100 | 100 | 100 | 100 |  | 100 | 60 | 
CC(=O)OC(C)(C)C(Cl)Cc1cc(-n2c(=O)cc(C(F)(F)F)n(C)c2=O)c(F)cc1Cl (stereo not drawn) [Compound 16, 2-CHLORO-3-METHYL-1-[2-CHLORO-4-FLUORO-5-[1-METHYL-6-TRIFLUOROMETHYL-2,4(1H,3H)-PYRIMIDINDION-3-YL]PHENYL]BUTAN-3-YL ACETATE] | 100 | 70 | 90 | 100 | 100 | 100 | 100 | 100 | 100 | 95 | 60 | 90 | 100 | 90 | 100 | 100 | 100 | 100 | 100 | 
Cn1c(C(F)(F)F)cc(=O)n(-c2cc(CC(Cl)C(C)(C)O)c(Cl)cc2F)c1=O (stereo not drawn) [Compound 1, 2-CHLORO-3-METHYL-1-[2-CHLORO-4-FLUORO-5-[1-METHYL-6-TRIFLUOROMETHYL-2,4(1H,3H)-PYRIMIDINDION-3-YL]PHENYL]BUTAN-3-OL] | 100 | 80 | 95 | 100 | 100 | 100 | 95 | 100 | 95 | 100 | 90 | 100 | 100 | 100 | 100 | 100 | 80 | 100 | 100 | 80

— patent USH1923H, “Herbicidal (oxaalkyl) phenyl-substituted heterocycles” (FMC Corporation, priority 1998, dated 2000)
